Legend:
[1] = system: RSV A2; experiment: RSV plaque reduction assay; format: cell-based, respiratory syncytial virus (RSV); conditions: human respiratory syncytial virus, HepG2, Hep-G2 cells, mean of at least two experiments
Procedure: (§1) Compounds were subjected to RSV plaque reduction assays according to the following protocol. Plaque EC50 and cell toxicity CC50 values are a mean of at least two experiments and figures are rounded to whole units.
Hep-G2 cells (ECACC, 85011430) were passaged in flasks and seeded in 24-well plates in DMEM containing antibiotics and supplemented with 10% FBS. During inoculation and subsequent incubation, cells were cultured in DMEM containing 2% FBS. 100 plaque forming unit/well of RSV (RSV A2 ECACC, 0709161v) was mixed with eight serial dilutions of compound. Subsequently, 100 μL of the virus/compound mixtures was added to confluent Hep-G2 cell monolayers. The cells and virus/compound mixtures were incubated at 37° C. in a humidified 5% CO2 incubator for 2 h prior to removal of the inoculum and addition of 1 mL of overlay (DMEM containing 2% FBS and 0.8% CMC) containing compound dilutions. The cells and were incubated at 37° C. in a humidified 5% CO2 incubator for 2 days.
Cells were washed with PBS before adding 75/25% […] EtOH/MeOH, for 3 min. Fixative was removed and plates were washed with PBS. A pre-titrated amount of the primary antibody was added in 200 μL PBS/2% milk powder, and plates incubated for 90 min at 37° C. The plates were washed 3 times with PBS/0.05% Tween20 before addition of rabbit anti-goat horse radish peroxidase in 200 μL PBS/2% milk powder, and incubated for 1 h at 37° C. Following three wash steps with PBS/0.05% Tween20, 200 μL ready-to-use TrueBlue was added and plates were incubated at rt for 10-15 min before washing with water. After removal of water, plates were air-dried in the dark.
(§2) Plates were scanned and analysed using the Immunospot S6 Macro analyser, which is equipped with BioSpot analysis software for counting immunostained plaques (virospots). Plaque counts were used to calculate % c infection relative to the mean of the plaque count in the virus control wells for RSV. The EC50 value was calculated as 50% reduction in signal, respectively, by interpolation of inhibition curves fitted with a 4-parameter nonlinear regression with a variable slope in Dotmatics. Plaque EC50 and cell toxicity CC50 values are a mean of at least two experiments and figures are rounded to whole units.

[2] = Cell cytotoxicity (CC50); format: cell-based; conditions: human; mean of at least two experiments
Description: as §1, §2

SMILES	EC50 [1] [nM]	CC50 [2] [nM]
C[C@H]1COCCN1c1ccc(-c2nn3cccnc3c2C(=O)N[C@H]2N=C(c3ccccc3)c3ccccc3NC2=O)cn1 (single isomer, unassigned) [Example 124, 2-(6-[(3S*)-3-methylmorpholin-4-yl]pyridin-3-yl)-N-[(3S)-2-oxo-5-phenyl-2,3-dihydro-1H-1,4-benzodiazepin-3-yl]pyrazolo[1,5-a]pyrimidine-3-carboxamide]	83	> 25000
C[C@H]1COCCN1c1ccc(-c2nn3cccnc3c2C(=O)N[C@H]2N=C(c3ccccc3)c3cccc(F)c3NC2=O)cn1 (single isomer, unassigned) [Example 125, N-[(3S)-9-fluoro-2-oxo-5-phenyl-2,3-dihydro-1H-1,4-benzodiazepin-3-yl]-2-{6-[(3S*)-3-methylmorpholin-4-yl]pyridin-3-yl}pyrazolo[1,5-a]pyrimidine-3-carboxamide]	87	> 25000
O=C(N[C@H]1N=C(c2ccccc2)c2ccccc2NC1=O)c1c(-c2cc(F)ccc2F)nn2cccnc12 [Example 6, 2-(2,5-Difluorophenyl)-N-[(3S)-2-oxo-5-phenyl-1,3-dihydro-1,4-benzodiazepin-3-yl]pyrazolo[1,5-a]pyrimidine-3-carboxamide]	94	> 25000
COc1ccc(F)c(-c2nn3cccnc3c2C(=O)N[C@H]2N=C(c3ccccc3)c3cccc(F)c3NC2=O)c1 [Example 8, 2-(2-Fluoro-5-methoxyphenyl)-N-[(3S)-9-fluoro-2-oxo-5-phenyl-1,3-dihydro-1,4-benzodiazepin-3-yl]pyrazolo[1,5-a]pyrimidine-3-carboxamide]	54	> 25000
COc1cccc(-c2nn3cccnc3c2C(=O)N[C@H]2N=C(c3ccccc3)c3cccc(F)c3NC2=O)c1F [Example 9, 2-(2-Fluoro-3-methoxyphenyl)-N-[(3S)-9-fluoro-2-oxo-5-phenyl-1,3-dihydro-1,4-benzodiazepin-3-yl]pyrazolo[1,5-a]pyrimidine-3-carboxamide]	73	> 25000
CC(C)Nc1ccc(-c2nn3cccnc3c2C(=O)N[C@H]2N=C(c3ccccc3)c3ccccc3NC2=O)cc1 [Example 13, N-[(3S)-2-Oxo-5-phenyl-1,3-dihydro-1,4-benzodiazepin-3-yl]-2-[4-(propan-2-ylamino)phenyl]pyrazolo[1,5-a]pyrimidine-3-carboxamide]	94	> 25000
CC(C)Oc1ccc(-c2nn3cccnc3c2C(=O)N[C@H]2N=C(c3ccccc3)c3ccccc3NC2=O)c(F)c1 [Example 15, 2-(2-Fluoro-4-propan-2-yloxyphenyl)-N-[(3S)-2-oxo-5-phenyl-1,3-dihydro-1,4-benzodiazepin-3-yl]pyrazolo[1,5-a]pyrimidine-3-carboxamide]	91	> 25000
Cc1ccn2nc(-c3ccccc3F)c(C(=O)N[C@H]3N=C(c4ccccc4)c4ccccc4NC3=O)c2n1 [Example 22, 2-(2-Fluorophenyl)-5-methyl-N-[(3S)-2-oxo-5-phenyl-1,3-dihydro-1,4-benzodiazepin-3-yl]pyrazolo[1,5-a]pyrimidine-3-carboxamide]	33	> 25000
Cc1ccc(F)c(-c2nn3cccnc3c2C(=O)N[C@H]2N=C(c3ccccc3)c3ccccc3NC2=O)c1 [Example 25, 2-(2-Fluoro-5-methylphenyl)-N-[(3S)-2-oxo-5-phenyl-1,3-dihydro-1,4-benzodiazepin-3-yl]pyrazolo[1,5-a]pyrimidine-3-carboxamide]	116	15400
Cc1ccc(F)c(-c2nn3cccnc3c2C(=O)N[C@H]2N=C(c3ccccc3)c3cccc(F)c3NC2=O)c1 [Example 26, 2-(2-Fluoro-5-methylphenyl)-N-[(3S)-9-fluoro-2-oxo-5-phenyl-1,3-dihydro-1,4-benzodiazepin-3-yl]pyrazolo[1,5-a]pyrimidine-3-carboxamide]	53	8770
O=C(N[C@H]1N=C(c2ccccc2)c2ccccc2NC1=O)c1c(-c2cncc(C3CC3)c2)nn2cccnc12 [Example 31, 2-(5-Cyclopropylpyridin-3-yl)-N-[(3S)-2-oxo-5-phenyl-1,3-dihydro-1,4-benzodiazepin-3-yl]pyrazolo[1,5-a]pyrimidine-3-carboxamide]	96	> 25000
Cc1cnc2c(C(=O)N[C@H]3N=C(c4ccccc4)c4ccccc4NC3=O)c(-c3ccccc3F)nn2c1 [Example 33, 2-(2-Fluorophenyl)-6-methyl-N-[(3S)-2-oxo-5-phenyl-1,3-dihydro-1,4-benzodiazepin-3-yl]pyrazolo[1,5-a]pyrimidine-3-carboxamide]	29	> 25000
Cc1ccn2nc(-c3ccc(F)cc3F)c(C(=O)N[C@H]3N=C(c4ccccc4)c4ccccc4NC3=O)c2n1 [Example 35, 2-(2,4-Difluorophenyl)-5-methyl-N-[(3S)-2-oxo-5-phenyl-1,3-dihydro-1,4-benzodiazepin-3-yl]pyrazolo[1,5-a]pyrimidine-3-carboxamide]	29	> 25000
O=C(N[C@H]1N=C(c2ccccc2)c2cccc(F)c2NC1=O)c1c(-c2ccccc2F)nn2ccc(N3CCCC3)nc12 [Example 40, N-[(3S)-9-Fluoro-2-oxo-5-phenyl-1,3-dihydro-1,4-benzodiazepin-3-yl]-2-(2-fluorophenyl)-5-pyrrolidin-1-ylpyrazolo[1,5-a]pyrimidine-3-carboxamide]	51	> 25000
O=C(N[C@H]1N=C(c2ccccc2)c2ccccc2NC1=O)c1c(-c2ccccc2F)nn2ccc(N3CCCC3)nc12 [Example 41, 2-(2-Fluorophenyl)-N-[(3S)-2-oxo-5-phenyl-1,3-dihydro-1,4-benzodiazepin-3-yl]-5-pyrrolidin-1-ylpyrazolo[1,5-a]pyrimidine-3-carboxamide]	80	> 25000
O=C(N[C@H]1N=C(c2ccccc2)c2ccccc2NC1=O)c1c(-c2ccc(N3CCCC3)cc2F)nn2cccnc12 [Example 45, 2-(2-Fluoro-4-pyrrolidin-1-ylphenyl)-N-[(3S)-2-oxo-5-phenyl-1,3-dihydro-1,4-benzodiazepin-3-yl]pyrazolo[1,5-a]pyrimidine-3-carboxamide]	103	> 25000
Cc1ccc2nc(-c3cncc(C(F)(F)F)c3)c(C(=O)N[C@H]3N=C(c4ccccc4)c4ccccc4NC3=O)n2n1 [Example 46, 6-Methyl-N-[(3S)-2-oxo-5-phenyl-1,3-dihydro-1,4-benzodiazepin-3-yl]-2-[5-(trifluoromethyl)pyridin-3-yl]imidazo[1,2-b]pyridazine-3-carboxamide]	94	> 25000
Cc1ccc2nc(-c3cncc(C(F)(F)F)c3)c(C(=O)N[C@H]3N=C(c4ccccc4)c4cccc(F)c4NC3=O)n2n1 [Example 47, N-[(3S)-9-fluoro-2-oxo-5-phenyl-1,3-dihydro-1,4-benzodiazepin-3-yl]-6-methyl-2-[5-(trifluoromethyl)pyridin-3-yl]imidazo[1,2-b]pyridazine-3-carboxamide]	101	> 25000
Cc1ccc(-c2nn3cccnc3c2C(=O)N[C@H]2N=C(c3ccccc3)c3ccccc3NC2=O)cn1 [Example 49, 2-(6-Methylpyridin-3-yl)-N-[(3S)-2-oxo-5-phenyl-1,3-dihydro-1,4-benzodiazepin-3-yl]pyrazolo[1,5-a]pyrimidine-3-carboxamide]	100	> 25000
COCCc1ccc(-c2nn3cccnc3c2C(=O)N[C@H]2N=C(c3ccccc3)c3cccc(F)c3NC2=O)cn1 [Example 51, 2-[6-(2-methoxyethyl)pyridin-3-yl]-N-[(3S)-9-fluoro-2-oxo-5-phenyl-1,3-dihydro-1,4-benzodiazepin-3-yl]pyrazolo[1,5-a]pyrimidine-3-carboxamide]	92	> 25000
Cc1cc(-c2nn3cccnc3c2C(=O)N[C@H]2N=C(c3ccccc3)c3cccc(F)c3NC2=O)ccn1 [Example 52, N-[(3S)-9-fluoro-2-oxo-5-phenyl-1,3-dihydro-1,4-benzodiazepin-3-yl]-2-(2-methylpyridin-4-yl)pyrazolo[1,5-a]pyrimidine-3-carboxamide]	103	> 25000
CCOc1ccc(-c2nn3cccnc3c2C(=O)N[C@H]2N=C(c3ccccc3)c3cccc(F)c3NC2=O)cn1 [Example 53, 2-(6-Ethoxypyridin-3-yl)-N-[(3S)-9-fluoro-2-oxo-5-phenyl-1,3-dihydro-1,4-benzodiazepin-3-yl]pyrazolo[1,5-a]pyrimidine-3-carboxamide]	98	> 25000
CCc1ccc(-c2nn3cccnc3c2C(=O)N[C@H]2N=C(c3ccccc3)c3ccccc3NC2=O)c(C)n1 [Example 56]	63	> 25000

Source: patent publication US11634425B2, “Pharmaceutical compounds” (priority 2019, dated 2023)
